Data published in patent publication US4837342A, “Prostacyclin analogue, and blood circulation improving agent and anti-ulcer composition containing it as active ingredient” (Sagami Chemical Research Center, priority 1986, dated 1989).
pIC50: −log10 of the molar value. Where two headings read alike, the source gives them in different places.

How the values were obtained:
Hydrochloric acid ulcer = Hydrochloric acid ulcer inhibiting activity; type: in vivo, wister rats; settings: rat; oral administration of 30 μg/kg; 0.6N hydrochloric acid; read-out: Hydrochloric acid ulcer inhibiting activity, Inhibiting rate
Experimental: Hydrochloric acid ulcer inhibiting activity
Male wister […] having a weight of from 190 to 240 g were used. The rats were starved in the same manner as in Test Example 6, and the test compounds and PGE2 were, respectively, orally administered in an amount of 30 μg/kg, and 30 minutes later, 1 ml of 0.6N hydrochloric acid was orally administered. Thirty minutes after the hydrochloric acid administration, each rat was killed by cervical vertebral luxation. Then, the stomach was taken out and fixed, and the ulcer index was obtained, in the same manner as in Test Example 6. The hydrochloric acid ulcer inhibiting activity of a test compound was represented by the inhibiting percentage (i.e. the percentage of the ulcer index of the treated group to the ulcer index of the non-treated group). To the non-treated group, the solvent was administered.

vertebral artery = assay: Blood flow-increasing activity in the vertebral artery, anesthetized dog; type: in vivo, crossbred adult dog; settings: for ED50: Canis lupus familiaris, papaverine hydrochloride 100 μg/kg = 100%; for Activity ratio, blood flow-increasing activity in vertebral artery: relative to prostacyclin = 1
Excerpt: Blood flow-increasing activity in the vertebral artery
A made or female crossbred adult dog having a weight of from 8 to 13 kg was anesthetized by intravenous administration of sodium Pentobarbital and subjected to thoractomy along the mediam line under artificial respiration to expose the left vertebral artery. Under sodium peparin treatment, a polyethylene cannula was inserted into the vertebral artery, and a blood flow-measuring probe was attached to its other end, to which a blood circulation tube led from the left femoral artery was connected, whereby the blood flow in the vertebral artery was measured by using an electromagnetic flow meter. The test compound was injected into the vertebral artery by near arterial injection, and the blood flow-increasingactivity in the vertebral artery was represented by ED50 (i.e. the dose of a test compound at which the blood flow increases by 50%, as evaluated on the basis that the blood flow increase (representing substantially the maximum reaction) by the administration of 100 μg/kg papaverine hydrochloride into the vertebral artery, is evaluated to be 100%).

femoral artery = assay: Blood flow-increasing activity in the femoral artery, anesthetized dog; type: in vivo, crossbred adult dog; settings: for ED50: Canis lupus familiaris, papaverine hydrochloride 100 μg/kg = 100%; for Activity ratio, blood flow-increasing activity in femoral artery: relative to prostacyclin = 1
Experimental: Blood flow-increasing activity in the femoral artery
A male or female crossbred adult dog having a weight of from 8 to 13 kg, was anesthetized by intravenous administration of sodium Pentobarbital. Then, a tracheal cannula was inserted, and artificial respiration was conducted. The blood flow in the femoral artery was measured by inserting the annula into the left femoral artery under sodium heparin treatment and providing a blood flow measuring probe at it other end, and by using an electromagnetic flow meter. The test compound was injected into the femoral artery by near arterial injection, and the blood flow-increasing activity in the femoral artery was represented by ED50 (i.e. the dose of a test compound at which the blood flow increases by 50%, as evaluated on the bais that the blood flow increase (representing substantially the maximum reaction) by the administration of 100 μg/kg of papaveline hydrochloride into the femoral artery, is evaluted to be 100%).

[1] = system: Blood platelet (Collagen agglutination); assay: Blood platelet agglutination inhibiting activity (collagen-induced), washed rabbit platelet suspension; type: cell-based, rabbit (Japanese white male rabbits); settings: for pIC50: Oryctolagus cuniculus, Platelet, collagen 1 μg/ml, concentration suppressing agglutination to 50%, read-out: Platelet agglutination inhibiting activity ED50, Collagen agglutination; for Activity ratio, platelet agglutination inhibiting activity, Collagen agglutination: relative to prostacyclin = 1
Experimental: (§1) Blood platelet aggutination inhibiting activity
(§2) Japanese white male rabbits having a weight of from 2.0 to 2.5 kg were used.
(§3) Under anesthesia with sodium Pentobarbital, blood was sampled from the carotid artery, and mixed with a 1/7 volume of an anticoagulant citric acid dextrose solution. Then, the mixture was subjected to centrifugal separation at 140×g for 15 minutes, whereupon the supernatant (platelet rich plasma:PRP) was obtained. PRP was subjected to centrifugal separation at 1,300×g for 7 minutes. The blood platelet pellets thus obtained were washed with a HEPES buffer solution (pH 6.5) for washing blood platelets, and subjected to centrifugal separation at 1,300×g for 7 minutes. The blood platelet pellets washed twice under such condition, were suspended in a suspending liquid (a buffer solution for washing blood platelets, which contains 0.1% of human fibrinogen, 1.8 mM of CaCl2 and 1.2 mM of MgCl2) to obtain a blood platelet suspension having a concentration of from 5×10^8 to 8×10^8 platelets/ml.
(§4) The platelet agglutination ability was measured by means of an agglutination meter. To 380 μl of the platelet suspension, 10 μl of a test compound or a solvent as the control, was added. Three minutes later, 10 μl of a platelet agglutinating substance (10 μM of ADP or 1 μg/ml of collagen, as the final concentration) was added thereto to induce agglutination.
(§5) The blood platelet agglutination inhibiting activity of each test compound was represented by ED50 (i.e. the concentration of the test compound where the platelet agglutination is suppressed to 50%).

coronary artery = assay: Blood flow-increasing activity in the coronary artery, anesthetized dog; type: in vivo, crossbred adult dog; settings: for Blood flow increase in coronary artery / ED50: dog, near arterial injection; for Blood flow increase in coronary artery: at 3 μg/kg; for Activity ratio, blood flow-increasing activity in coronary artery: relative to prostacyclin = 1; for ED50: Canis lupus familiaris, reactive hyperemia = 100%
Experimental: Blood flow-increasing activity in the coronary artery
A crossbred adult dog having a weight of from 9 to 15 kg was anesthetized with sodium Pentobarbital and subjected to thoractomy under artificial respiration. After pericardiectomy, the frontal descending branch of the left coronary artery was separated from the surrounding tissues, and a blood flow-measuring probe was attached thereto under sodium heparin treatment. The coronary blood flow was measured by using an electromagnetic flow meter. The test compound was injected into the coronary artery by near arterial injection, and the blood flow-increasing activity in the coronay artery was represented by ED50 (i.e. the dose of a test compound at which the blood flow increases by 50%, as evaluated on the basis that the blood flow increase by the reactive hyperemia caused by releasing the blood flow of the coronary artery after blocking it for 15 seconds, is evaluated to be 100%).

Ethanol ulcer = Ethanol ulcer inhibiting activity; type: in vivo, Male wister rats; settings: rat; for Ethanol ulcer inhibition: oral administration of 30 μg/kg; for ED50: po, P.O., 30 minutes before 99.5% ethanol
Experimental: Ethanol ulcer inhibiting activity
Male wister rats having a weight of from 170 to 270 g were put into individual cages and starved for 24 hours. During this starvation period, the rats were allowed to drink water freely. A test compound or PGE2 as a comparative compound was orally administered in an amount of 3, 10 or 30 μg/kg, and 30 minutes later, 1 ml of 99.5% ethanol was orally administered to each rat. One hour after the ethanol administration, each rat was filled by cervical vertebral luxation, and the stomach was taken out. A 1% formaline solution was injected into the stomach in an amount of about 8 ml, and the stomach was fixed in the formaline solution for 30 minutes. After the fixing, the stomach was severed along the greater curvature, and the mucous membrane surface of the stomach was gently washed with flowing water. Then, the total length of damages appearing on the gastric glandular portion was obtained and used as the ulcer index.
The ethanol ulcer inhibiting activity of a test compound was represented by ED50 (i.e. the dose of the test compound at which the ulcer was inhibited by 50% relative to the ulcer index of the non-treated group). To the non-treated group, the solvent was administered.

[2] = system: Blood platelet (ADP agglutination); assay: Blood platelet agglutination inhibiting activity (ADP-induced), washed rabbit platelet suspension; type: cell-based, rabbit (Japanese white male rabbits); settings: for pIC50: Oryctolagus cuniculus, Platelet, ADP 10 μM, concentration suppressing agglutination to 50%, read-out: Platelet agglutination inhibiting activity ED50, ADP agglutination; for Activity ratio, platelet agglutination inhibiting activity, ADP agglutination: relative to prostacyclin = 1
Experimental: as §1, §2, §3, §4, §5

Indomethacine ulcer = Indomethacine ulcer inhibiting activity; type: in vivo, Male wister rats; settings: rat
Excerpt: Indomethacine ulcer inhibiting activity
Male wister rats having a weight of from 210 to 270 g were used. The rats were starved in the same manner as in Test Example 6. […] Three hours after the indomethacine administration, the test compound or PGE2 was again orally administered in the same amount. Six hours after the first administration of indomethacine, each rat was killed by cervical bertebral luxation. The stomach was taken out and fixed, and the ulcer index was obtained, in the same manner as in Test Example 6.
The indomethacine ulcer inhibiting activity of a test compound was represented by the inhibiting percentage (i.e. the inhibiting percentage of the ulcer index of the treated group to the ulcer index of the non-treated group). To the non-treated group, the solvent was administered.

diastolic blood pressure = assay: Hypotensive activity, anesthetized dog; type: in vivo, crossbred adult dog; settings: for Activity ratio, hypotensive activity: relative to prostacyclin = 1; for ED (50 mmHg): Canis lupus familiaris, iv
Experimental: A male or female crossbred adult dog having a weight of from 9 to 14 kg was anesthetized by intraveous administration of sodium Pentobarbital. Then, the left carotid was exposed under artificial respiration, and the blood pressure was measured by using an electric blood pressure meter. […]

[3] = oral administration of 60 μg/kg twice
[4] = dog, at 3 μg/kg, near arterial injection

Compound	pIC50 [1]	pIC50 [2]	inhibition in vivo at 0.03 mg/kg (Hydrochloric acid ulcer) [%]	ED50 (vertebral artery; dog, near arterial injection) [µg/kg]	Activity ratio, blood flow-increasing activity in vertebral artery (vertebral artery)	ED50 (femoral artery; dog, near arterial injection) [µg/kg]	Activity ratio, blood flow-increasing activity in femoral artery (femoral artery)	Activity ratio, platelet agglutination inhibiting activity, Collagen agglutination [1]	Blood flow increase in coronary artery (coronary artery) [%]	Activity ratio, blood flow-increasing activity in coronary artery (coronary artery)	Ethanol ulcer inhibition (Ethanol ulcer) [%]	Activity ratio, platelet agglutination inhibiting activity, ADP agglutination [2]	Indomethacine ulcer inhibition (in words) (Indomethacine ulcer; [3])	Hypotensive activity, blood pressure decrease (diastolic blood pressure; dog, at 10 μg/kg i.v.) [mmHg]	Activity ratio, hypotensive activity (diastolic blood pressure)	ED50 (coronary artery) [µg/kg]	ED50 (Ethanol ulcer) [µg/kg]	further results
CCC#CCC(C)[C@H](O)/C=C/[C@@H]1[C@H]2CC=C(CCCCC(=O)O)C[C@H]2C[C@H]1O (stereo partly shown) [(i)]	7.62	7.66	17.4	0.8	1/18	0.56	1/23	1/7	–	1/360	–	–	–	24.5	1/152	3.6	5.89	Indomethacine ulcer inhibiting activity, Inhibiting rate (Indomethacine ulcer; oral administration of 10 μg/kg twice (so in the source)): 49.5%; Hypotensive activity, blood pressure decrease (diastolic blood pressure; at 60 μg/kg i.v. (so in the source), Table 2): 24.5 mmHg
CCCCC[C@H](O)/C=C/[C@H]1[C@H](O)CC(=O)[C@@H]1C/C=C\CCCC(=O)O [PGE2, reference compound]	–	–	61.6	–	–	–	–	–	–	–	–	–	–	–	–	–	9.03	Indomethacine ulcer inhibiting activity, Inhibiting rate (Indomethacine ulcer; oral administration 30 μg/kg twice): 98.3%
CCC#CCC(C)[C@H](O)/C=C/[C@@H]1[C@H]2CCC(COCCC(=O)O)=C[C@H]2C[C@H]1O (stereo partly shown) [(h)]	–	< 5.52	21.3	–	–	–	–	–	25	–	32.5	–	Certain inhibition	15	–	–	–	Blood flow increase in vertebral artery (vertebral artery; [4]): 28.5%; Blood flow increase in femoral artery (femoral artery; [4]): 31.7%

The remaining compounds from weak to strong by pIC50 [2], led by results:

pIC50 [1]	pIC50 [2]	Compound	inhibition in vivo at 0.03 mg/kg (Hydrochloric acid ulcer) [%]	ED50 (vertebral artery; dog, near arterial injection) [µg/kg]	Activity ratio, blood flow-increasing activity in vertebral artery (vertebral artery)	ED50 (femoral artery; dog, near arterial injection) [µg/kg]	Activity ratio, blood flow-increasing activity in femoral artery (femoral artery)	Activity ratio, platelet agglutination inhibiting activity, Collagen agglutination [1]	Blood flow increase in coronary artery (coronary artery) [%]	Activity ratio, blood flow-increasing activity in coronary artery (coronary artery)	Ethanol ulcer inhibition (Ethanol ulcer) [%]	Activity ratio, platelet agglutination inhibiting activity, ADP agglutination [2]	Indomethacine ulcer inhibition (in words) (Indomethacine ulcer; [3])	Hypotensive activity, blood pressure decrease (diastolic blood pressure; dog, at 10 μg/kg i.v.) [mmHg]	Activity ratio, hypotensive activity (diastolic blood pressure)	ED50 (coronary artery) [µg/kg]	ED50 (Ethanol ulcer) [µg/kg]	further results
6.01	5.89	CCCCC[C@H](O)/C=C/[C@@H]1[C@H]2CCC(CCCC(=O)O)=C[C@H]2C[C@H]1O [(a), 3-(3-carboxypropyl)-7-exo-(3α-hydroxy-trans-1-octenyl)-8-endo-hydroxy-cis-bicyclo[4,3,0]nona-2-ene]	15.3	0.44	1/10	0.19	1/8	1/285	37.6	About 1/500	20.0	1/455	Certain inhibition	20	1/192	–	–	–
–	7.42	CCC#CCC(C)[C@H](O)/C=C/[C@@H]1[C@H]2CCC(CCOCC(=O)O)=C[C@H]2C[C@H]1O (stereo partly drawn) [(g), 3(3-oxa-4-carboxybutyl)-7-exo-(3α-hydroxy-4,8-dimethyl-1-trans-octen-6-ynyl)-8-endo-hydroxy-cis-bicyclo[4,3,0]nona-2-ene]	42.1	2	1/45	0.72	1/30	–	–	1/55	–	1/13	–	–	1/67	0.55	5.38	Indomethacine ulcer inhibiting activity, Inhibiting rate (Indomethacine ulcer; [3]): 57.3%; ED (50 mmHg) (diastolic blood pressure; Table 2, read-out: Hypotensive activity ED50 mmHg): 0.0161 mg/kg; ED (50 mmHg) (diastolic blood pressure; dog, femoral vein, Table 1, read-out: Hypotensive activity ED50 (dose reducing diastolic blood pressure by 50 mmHg)): 0.016 mg/kg
